Reference: article PMC10041525, “New Dual Inhibitors of Bacterial Topoisomerases with Broad-Spectrum Antibacterial Activity and In Vivo Efficacy against Vancomycin-Intermediate Staphylococcus aureus” (Journal of Medicinal Chemistry, 2023)
Converted amounts (≈) assume the structure as drawn. Like-named read-outs stand apart in the source and are kept apart here.

Assays:
[1] = test system: N. gonorrhoeae ATCC 49226; assay: IHMA QC MIC; assay type: cell-based; settings: Neisseria gonorrhoeae, ATCC49226; QC strain N. gonorrhoeae ATCC 49226, test date 2021-11-18; read-out: MIC
Description: Supplement jm2c01905_si_004.xlsx, sheet "QC" | column: MIC [µg/mL]

[2] = test system: 100 A. baumannii strains (50 MDR, 50 non-MDR); assay: MIC broth microdilution at IHMA Europe, panel of 100 strains; assay type: cell-based; settings: for MIC / MIC50 / MIC90: Acinetobacter baumannii; for MIC50: read-out: MIC 50; for MIC90: read-out: MIC 90

## O=C(O)c1cn(C2CC2)c2cc(N3CCNCC3)c(F)cc2c1=O [ciprofloxacin]
[1]
  MIC: 0.004 mg/L (≈ 0.0121 µM)
[2]; A. baumannii IHMA 1769393, Lithuania 2018, Non-MDR, read-out: MIC
  MIC: 0.5 mg/L (≈ 1.51 µM)
[2]; A. baumannii IHMA 1769782, Israel 2018, MDR, read-out: MIC
  MIC: > 16 mg/L
[2]; A. baumannii IHMA 1769910, Israel 2018, Non-MDR, read-out: MIC
  MIC: 1 mg/L (≈ 3.02 µM)
[2]; A. baumannii IHMA 1790317, Czech Republic 2018, Non-MDR, read-out: MIC
  MIC: ≤ 0.06 mg/L
[2]; A. baumannii IHMA 1790916, Romania 2018, Non-MDR, read-out: MIC
  MIC: ≤ 0.06 mg/L
[2]; A. baumannii IHMA 1791877, Israel 2018, MDR, read-out: MIC
  MIC: > 16 mg/L
[2]; A. baumannii IHMA 1792961, Jordan 2018, MDR, read-out: MIC
  MIC: > 16 mg/L
[2]; A. baumannii IHMA 1795669, Tunisia 2018, Non-MDR, read-out: MIC
  MIC: ≤ 0.06 mg/L
[2]; A. baumannii IHMA 1814276, Lebanon 2018, MDR, read-out: MIC
  MIC: > 16 mg/L
[2]; A. baumannii IHMA 1815198, Kuwait 2018, MDR, read-out: MIC
  MIC: > 16 mg/L
[2]; A. baumannii IHMA 1815856, Israel 2018, MDR, read-out: MIC
  MIC: > 16 mg/L
[2]; A. baumannii IHMA 1830924, United Kingdom 2018, Non-MDR, read-out: MIC
  MIC: 0.5 mg/L (≈ 1.51 µM)
[2]; A. baumannii IHMA 1849819, Kuwait 2018, MDR, read-out: MIC
  MIC: > 16 mg/L
[2]; A. baumannii IHMA 1849829, Kuwait 2018, Non-MDR, read-out: MIC
  MIC: ≤ 0.06 mg/L
[2]; A. baumannii IHMA 1926285, Qatar 2018, Non-MDR, read-out: MIC
  MIC: ≤ 0.06 mg/L
[2]; A. baumannii IHMA 1926288, Qatar 2018, MDR, read-out: MIC
  MIC: > 16 mg/L
[2]; A. baumannii IHMA 1963732, Turkey 2019, MDR, read-out: MIC
  MIC: > 16 mg/L
[2]; A. baumannii IHMA 1967860, Spain 2019, Non-MDR, read-out: MIC
  MIC: 1 mg/L (≈ 3.02 µM)
[2]; A. baumannii IHMA 1971673, Latvia 2019, MDR, read-out: MIC
  MIC: > 16 mg/L
[2]; A. baumannii IHMA 1983151, Greece 2019, MDR, read-out: MIC
  MIC: > 16 mg/L
[2]; A. baumannii IHMA 1984665, Lithuania 2019, MDR, read-out: MIC
  MIC: > 16 mg/L
[2]; A. baumannii IHMA 1986738, Turkey 2019, MDR, read-out: MIC
  MIC: > 16 mg/L
[2]; A. baumannii IHMA 1987162, Croatia 2019, MDR, read-out: MIC
  MIC: > 16 mg/L
[2]; A. baumannii IHMA 1993615, Turkey 2019, MDR, read-out: MIC
  MIC: > 16 mg/L
[2]; A. baumannii IHMA 1994284, Italy 2019, MDR, read-out: MIC
  MIC: > 16 mg/L
[2]; A. baumannii IHMA 2003279, Turkey 2019, MDR, read-out: MIC
  MIC: > 16 mg/L
[2]; A. baumannii IHMA 2014931, South Africa 2019, Non-MDR, read-out: MIC
  MIC: 2 mg/L (≈ 6.04 µM)
[2]; A. baumannii IHMA 2020360, Croatia 2019, MDR, read-out: MIC
  MIC: > 16 mg/L
[2]; A. baumannii IHMA 2031511, Greece 2019, Non-MDR, read-out: MIC
  MIC: ≤ 0.06 mg/L
[2]; A. baumannii IHMA 2031524, Greece 2019, MDR, read-out: MIC
  MIC: > 16 mg/L
[2]; A. baumannii IHMA 2035089, Serbia 2019, MDR, read-out: MIC
  MIC: > 16 mg/L
[2]; A. baumannii IHMA 2038976, Hungary 2019, MDR, read-out: MIC
  MIC: > 16 mg/L
[2]; A. baumannii IHMA 2051503, Serbia 2019, MDR, read-out: MIC
  MIC: > 16 mg/L
[2]; A. baumannii IHMA 2065587, France 2019, Non-MDR, read-out: MIC
  MIC: ≤ 0.06 mg/L
[2]; A. baumannii IHMA 2129256, Qatar 2019, Non-MDR, read-out: MIC
  MIC: ≤ 0.06 mg/L
[2]; A. baumannii IHMA 2154584, Israel 2020, MDR, read-out: MIC
  MIC: > 16 mg/L
[2]; A. baumannii IHMA 2155340, Kenya 2020, MDR, read-out: MIC
  MIC: > 16 mg/L
[2]; A. baumannii IHMA 2156634, Turkey 2020, MDR, read-out: MIC
  MIC: > 16 mg/L
[2]; A. baumannii IHMA 2156709, Turkey 2020, MDR, read-out: MIC
  MIC: > 16 mg/L
[2]; A. baumannii IHMA 2177232, Lithuania 2020, MDR, read-out: MIC
  MIC: > 16 mg/L
[2]; A. baumannii IHMA 2177489, Lithuania 2020, MDR, read-out: MIC
  MIC: > 16 mg/L
[2]; A. baumannii IHMA 2178574, Ukraine 2020, Non-MDR, read-out: MIC
  MIC: ≤ 0.06 mg/L
[2]; A. baumannii IHMA 2180142, Malaysia 2020, MDR, read-out: MIC
  MIC: > 16 mg/L
[2]; A. baumannii IHMA 2181370, Morocco 2020, MDR, read-out: MIC
  MIC: > 16 mg/L
[2]; A. baumannii IHMA 2183729, Argentina 2020, MDR, read-out: MIC
  MIC: > 16 mg/L
[2]; A. baumannii IHMA 2193375, Venezuela 2020, MDR, read-out: MIC
  MIC: > 16 mg/L
[2]; A. baumannii IHMA 2193485, Venezuela 2020, Non-MDR, read-out: MIC
  MIC: ≤ 0.06 mg/L
[2]; A. baumannii IHMA 2193607, Venezuela 2020, MDR, read-out: MIC
  MIC: > 16 mg/L
[2]; A. baumannii IHMA 2195460, Italy 2020, MDR, read-out: MIC
  MIC: > 16 mg/L
[2]; A. baumannii IHMA 2196914, South Africa 2020, MDR, read-out: MIC
  MIC: > 16 mg/L
[2]; A. baumannii IHMA 2196959, South Africa 2020, MDR, read-out: MIC
  MIC: > 16 mg/L
[2]; A. baumannii IHMA 2203763, Spain 2020, MDR, read-out: MIC
  MIC: > 16 mg/L
[2]; A. baumannii IHMA 2205144, Korea, South 2020, MDR, read-out: MIC
  MIC: > 16 mg/L
[2]; A. baumannii IHMA 2206459, Taiwan 2020, MDR, read-out: MIC
  MIC: > 16 mg/L
[2]; A. baumannii IHMA 2206507, Taiwan 2020, Non-MDR, read-out: MIC
  MIC: ≤ 0.06 mg/L
[2]; A. baumannii IHMA 2216586, Taiwan 2020, MDR, read-out: MIC
  MIC: > 16 mg/L
[2]; A. baumannii IHMA 2224017, Panama 2020, MDR, read-out: MIC
  MIC: > 16 mg/L
[2]; A. baumannii IHMA 2231797, Greece 2020, MDR, read-out: MIC
  MIC: > 16 mg/L
[2]; A. baumannii IHMA 2233099, Guatemala 2020, MDR, read-out: MIC
  MIC: > 16 mg/L
[2]; A. baumannii IHMA 2233430, Kazakhstan 2020, MDR, read-out: MIC
  MIC: > 16 mg/L
[2]; A. baumannii IHMA 2238964, Thailand 2020, MDR, read-out: MIC
  MIC: > 16 mg/L
[2]; A. baumannii IHMA 2261047, Belgium 2020, MDR, read-out: MIC
  MIC: > 16 mg/L
[2]; A. baumannii IHMA 2274234, South Africa 2020, MDR, read-out: MIC
  MIC: > 16 mg/L
[2]; A. baumannii IHMA 2274364, South Africa 2020, MDR, read-out: MIC
  MIC: > 16 mg/L
[2]; A. baumannii IHMA 2275751, Jordan 2020, MDR, read-out: MIC
  MIC: > 16 mg/L
[2]; A. baumannii IHMA 2316205, United States 2020, MDR, read-out: MIC
  MIC: > 16 mg/L
[2]; MDR n = 50, read-out: MAX (maximum MIC; all strains inhibited)
  MIC: > 16 mg/L
[2]; MDR n = 50
  MIC50: > 16 mg/L
  MIC90: > 16 mg/L
  Percentage I: 0%
  Percentage R: 100%
  Percentage S: 0%
[2]; MDR n = 50, read-out: MIN (minimum MIC)
  MIC: > 16 mg/L
[2]; all isolates n = 100, read-out: MAX (maximum MIC; all strains inhibited)
  MIC: > 16 mg/L
[2]; all isolates n = 100
  MIC50: 2 mg/L (≈ 6.04 µM)
  MIC90: > 16 mg/L
[2]; all isolates n = 100, read-out: MIN (minimum MIC)
  MIC: ≤ 0.06 mg/L
[2]; non-MDR n = 50, read-out: MAX (maximum MIC)
  MIC: 2 mg/L (≈ 6.04 µM)
[2]; non-MDR n = 50, read-out: MIN (minimum MIC)
  MIC: ≤ 0.06 mg/L
[2]; non-MDR n = 50
  Percentage I: 2%
  Percentage R: 0%
  Percentage S: 98%
